Reference: PMC8151276, “An Integrated Approach toward NanoBRET Tracers for Analysis of GPCR Ligand Engagement” (Molecules, 2021)

Key:
Format in all cases: binding
PTGIR = target: T1, PTGIR (Homo sapiens, UniProt P43119); test: NanoBRET screen HiBiT-PTGIR in HEK293; conditions: PTGIR
T1 construct: purchased Promega (in-house HiBiT-GPCR construct library, NanoBRET)
Protocol: (§1) Each tracer candidate was screened across the entire library of HiBiT-GPCR constructs using NanoBRET as the detection modality. As depicted in Figure 4A, the specificity of interactions was evaluated through decrease in BRET due to competitive displacement of a bound tracer by excess parental compound. Each tracer was analyzed for binding to each HiBiT-GPCR fusion in the absence and in the presence of competing parental compound. Briefly, HEK293 cells were transfected with HiBiT-GPCR constructs diluted into promoterless DNA to reduce expression and maximize translocation to the cell surface. Each tracer candidate was then screened at concentrations of 1 μM and 0.1 μM across cells expressing these fusions. Cells were treated for 1.5 h with tracer either alone or in the presence of 20 μM competing parental compound (i.e., control). BRET was measured upon addition of purified LgBiT and subsequent complementation with HiBiT genetically fused to a GPCR. The specificity of interactions was assessed through a decrease in BRET signal due to competitive displacement of the bound tracer. To further gauge the robustness of these interactions, the fold response over the control (i.e., BRETtracer/BRETcontrol) was calculated. We chose a 1.5-fold response, which translates to ≥7-fold signal over noise as the minimal threshold required to score an interaction as positive. […]. Below we highlight the screening results obtained for our exemplary fluorescent tracers based on Clozapine, Amitriptyline and AZD1283.
(§2) HiBiT-GPCR DNA constructs were diluted in 10 mM Tris pH 8 to a final concentration of 0.01 μg/μL, arrayed in 96-well plates and stored at −20 °C. For transfection, HEK293 cells were suspended in Opti-MEM (without phenol red) supplemented with 2% fetal bovine serum (Seradigm) and 100 units/mL penicillin–streptomycin (Gibco) at a final concentration of 220,000 cells/mL and dispensed into white 96-well plates at 90 μL/well. Subsequent transfections and screens were carried using an Agilent Bravo Automated Liquid Handling Platform. First, the 96-well HiBiT DNA arrays were diluted 25-fold in Opti-MEM (without serum or phenol red) to a final concentration of 0.0004 μg/μL and 20 μL of the diluted DNAs were transferred into new 96-well plates. Next, promoterless carrier DNA (1 μg/μL) was diluted 25-fold (0.04 μg/μL) and then dispensed into the diluted arrays at 20 μL/well. Following brief mixing, Viafect transfection reagent (Promega) diluted 16-fold into Opti-MEM was dispensed into the plates at 40 μL/well. After mixing by pipetting, plates were incubated for 10 min on the pipetting station deck. The DNA-transfection reagent complexes were then added to plates containing cells. To facilitate the screen, 10 μL of DNA-transfection reagent complexes were added in duplicates to the top 4 and bottom 4 rows, resulting in two identical 48-well arrays per plate. Plates with transfected cells were incubated for 18–20 h at 37 °C/5% CO2. A screen of each tracer across the entire library using two different concentrations requires duplicate plates of transfected cells. Depending on the number of tracers being screened, transfections can be scaled up using the same ratios. The next day, for each tracer, four 20× screening solutions in tracer dilution buffer (Promega) were prepared: two duplicates at final concentration of 20 μM and two duplicates at a final concentration of 2 μM. A competing unmodified compound was added to one of each duplicate at a final concentration of 400 μM. The four resulting solutions were diluted 4-fold in Opti-MEM without serum or phenol red to generate 5× solutions (5 µM and 0.5 µM tracer +/− 100 μM competing compound). To screen the library, a BioTek MultiFlo FX liquid dispenser was used to dispense 22.5 µL of tracer solution to the top 4 rows and 22.5 µL tracer + competing compound solution to the 4 bottom rows. Plates were briefly mixed on an orbital shaker and incubated for 1.5 h at room temperature. […]

XCR1 = target: T2, XCR1 (Homo sapiens, UniProt P46094); test: NanoBRET screen HiBiT-XCR1 in HEK293; conditions: XCR1
T2 construct: purchased Promega (in-house HiBiT-GPCR construct library, NanoBRET)
T2 sequence (P46094 1-333): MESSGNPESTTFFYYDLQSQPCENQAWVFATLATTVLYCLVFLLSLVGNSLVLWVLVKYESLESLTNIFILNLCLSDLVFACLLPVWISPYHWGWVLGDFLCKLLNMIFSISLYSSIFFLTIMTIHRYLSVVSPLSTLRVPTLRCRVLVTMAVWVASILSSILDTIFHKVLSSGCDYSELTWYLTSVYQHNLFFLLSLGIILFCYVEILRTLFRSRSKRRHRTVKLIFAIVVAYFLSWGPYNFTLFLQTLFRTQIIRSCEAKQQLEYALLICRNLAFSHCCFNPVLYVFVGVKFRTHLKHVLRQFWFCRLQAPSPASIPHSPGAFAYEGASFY
Protocol: as §1, §2

P2RY2 = target: T3, P2RY2 (Homo sapiens, UniProt P41231); test: NanoBRET screen HiBiT-P2RY2 in HEK293; conditions: P2RY2
T3 construct: purchased Promega (in-house HiBiT-GPCR construct library, NanoBRET)
T3 sequence (P41231 whole entry): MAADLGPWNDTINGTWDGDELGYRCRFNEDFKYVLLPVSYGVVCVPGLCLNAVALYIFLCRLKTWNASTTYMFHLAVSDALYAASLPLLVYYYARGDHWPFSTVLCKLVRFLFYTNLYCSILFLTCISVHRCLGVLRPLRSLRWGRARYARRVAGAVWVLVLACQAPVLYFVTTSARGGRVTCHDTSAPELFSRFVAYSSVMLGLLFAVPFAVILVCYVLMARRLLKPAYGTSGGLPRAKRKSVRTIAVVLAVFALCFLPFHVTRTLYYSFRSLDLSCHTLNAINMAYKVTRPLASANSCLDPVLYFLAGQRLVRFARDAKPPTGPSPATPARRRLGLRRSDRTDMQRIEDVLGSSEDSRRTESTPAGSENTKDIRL
Protocol: as §1, §2

PTGER4 = target: T4, PTGER4 (Homo sapiens, UniProt P35408); test: NanoBRET screen HiBiT-PTGER4 in HEK293; conditions: PTGER4
T4 construct: purchased Promega (in-house HiBiT-GPCR construct library, NanoBRET)
T4 sequence (P35408 whole entry): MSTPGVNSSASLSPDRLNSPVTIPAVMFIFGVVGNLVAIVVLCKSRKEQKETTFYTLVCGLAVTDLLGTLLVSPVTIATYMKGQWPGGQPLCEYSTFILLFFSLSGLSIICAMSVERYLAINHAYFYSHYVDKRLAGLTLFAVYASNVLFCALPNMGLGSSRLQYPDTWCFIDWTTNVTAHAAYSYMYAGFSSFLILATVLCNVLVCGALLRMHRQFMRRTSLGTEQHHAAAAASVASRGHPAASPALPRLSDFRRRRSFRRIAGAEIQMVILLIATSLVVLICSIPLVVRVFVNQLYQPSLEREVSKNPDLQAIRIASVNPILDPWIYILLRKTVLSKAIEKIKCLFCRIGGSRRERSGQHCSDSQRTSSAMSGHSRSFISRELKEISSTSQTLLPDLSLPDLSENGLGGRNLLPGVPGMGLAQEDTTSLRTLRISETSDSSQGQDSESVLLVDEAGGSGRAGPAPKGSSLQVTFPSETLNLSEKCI
Protocol: as §1, §2

GCGR = target: T5, GCGR (Homo sapiens, UniProt P47871); test: NanoBRET screen HiBiT-GCGR in HEK293; conditions: GCGR
T5 construct: purchased Promega (in-house HiBiT-GPCR construct library, NanoBRET)
T5 sequence (P47871 26-477): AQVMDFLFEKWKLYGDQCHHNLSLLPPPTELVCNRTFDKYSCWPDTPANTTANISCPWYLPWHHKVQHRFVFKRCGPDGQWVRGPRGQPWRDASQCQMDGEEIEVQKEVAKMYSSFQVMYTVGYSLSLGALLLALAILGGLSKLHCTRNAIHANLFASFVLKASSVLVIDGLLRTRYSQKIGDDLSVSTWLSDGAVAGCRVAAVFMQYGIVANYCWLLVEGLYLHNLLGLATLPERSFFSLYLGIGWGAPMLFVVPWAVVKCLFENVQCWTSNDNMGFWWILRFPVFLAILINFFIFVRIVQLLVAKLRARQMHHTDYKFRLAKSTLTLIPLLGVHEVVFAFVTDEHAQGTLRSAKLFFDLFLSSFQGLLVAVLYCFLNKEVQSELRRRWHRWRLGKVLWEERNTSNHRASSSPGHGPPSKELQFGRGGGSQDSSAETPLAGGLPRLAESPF
Protocol: as §1, §2

T1 sequence (P43119 whole entry): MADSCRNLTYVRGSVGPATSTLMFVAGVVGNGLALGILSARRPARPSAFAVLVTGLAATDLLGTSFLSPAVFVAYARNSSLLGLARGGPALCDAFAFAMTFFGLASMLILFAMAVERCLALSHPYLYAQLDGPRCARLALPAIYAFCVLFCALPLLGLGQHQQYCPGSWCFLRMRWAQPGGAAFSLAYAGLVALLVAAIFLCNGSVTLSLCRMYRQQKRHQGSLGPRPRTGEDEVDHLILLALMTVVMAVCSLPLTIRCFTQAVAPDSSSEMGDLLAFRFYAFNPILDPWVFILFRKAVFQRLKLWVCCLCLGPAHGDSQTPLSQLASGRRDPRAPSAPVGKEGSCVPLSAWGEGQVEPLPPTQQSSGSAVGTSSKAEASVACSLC

COc1ccccc1N1CCN(CCCCN2C(=O)c3ccc(CNC(=O)CCOCCNC(=O)c4ccc(CNC(=O)CCc5ccc6n5[B-](F)(F)[N+]5=C(c7ccc[nH]7)C=CC5=C6)cc4)cc3C2=O)CC1 [NAN-190-3-NB590]
NanoBRET Fold Response (PTGIR; tracer 0.1μM): 0.95
NanoBRET Fold Response (PTGIR; tracer 1μM): 1.01
NanoBRET Fold Response (XCR1; tracer 0.1μM): 1.29
NanoBRET Fold Response (XCR1; tracer 1μM): 1.34
NanoBRET Fold Response (P2RY2; tracer 0.1μM): 1.00
NanoBRET Fold Response (P2RY2; tracer 1μM): 1.01
NanoBRET Fold Response (PTGER4; tracer 0.1μM): 1.00
NanoBRET Fold Response (PTGER4; tracer 1μM): 0.97
NanoBRET Fold Response (GCGR; tracer 0.1μM): 0.84
NanoBRET Fold Response (GCGR; tracer 1μM): 0.76

O=C(CCc1ccc2n1[B-](F)(F)[N+]1=C(c3ccc[nH]3)C=CC1=C2)NCc1ccc(C(=O)NCCOCCC(=O)N[C@@H]2CC[C@@]3(O)[C@H]4Cc5ccc(O)c6c5[C@@]3(CCN4CC3CC3)[C@H]2O6)cc1 [Naltrexone-3-NB590]
NanoBRET Fold Response (PTGIR; tracer 0.1μM): 0.98
NanoBRET Fold Response (PTGIR; tracer 1μM): 1.17
NanoBRET Fold Response (XCR1; tracer 0.1μM): 0.97
NanoBRET Fold Response (XCR1; tracer 1μM): 0.61
NanoBRET Fold Response (P2RY2; tracer 0.1μM): 0.90
NanoBRET Fold Response (P2RY2; tracer 1μM): 1.10
NanoBRET Fold Response (PTGER4; tracer 0.1μM): 0.94
NanoBRET Fold Response (PTGER4; tracer 1μM): 1.01
NanoBRET Fold Response (GCGR; tracer 0.1μM): 1.06
NanoBRET Fold Response (GCGR; tracer 1μM): 0.92

Cc1cc2c(s1)Nc1ccccc1N=C2N1CCN(CCCNC(=O)CCOCCOCCOCCOCCNC(=O)CCc2ccc3n2[B-](F)(F)[N+]2=C(c4ccc[nH]4)C=CC2=C3)CC1 [Olanzapine-a-2-NB590]
NanoBRET Fold Response (PTGIR; tracer 0.1μM): 0.99
NanoBRET Fold Response (PTGIR; tracer 1μM): 0.98
NanoBRET Fold Response (XCR1; tracer 0.1μM): 0.88
NanoBRET Fold Response (XCR1; tracer 1μM): 1.27
NanoBRET Fold Response (P2RY2; tracer 0.1μM): 0.95
NanoBRET Fold Response (P2RY2; tracer 1μM): 1.13
NanoBRET Fold Response (PTGER4; tracer 0.1μM): 1.02
NanoBRET Fold Response (PTGER4; tracer 1μM): 1.07
NanoBRET Fold Response (GCGR; tracer 0.1μM): 0.97
NanoBRET Fold Response (GCGR; tracer 1μM): 0.95

O=C(CCc1ccc2n1[B-](F)(F)[N+]1=C(c3ccc[nH]3)C=CC1=C2)NCc1ccc(C(=O)NCCOCCOCCNCC(O)COc2cccc3ccccc23)cc1 (stereo not shown) [Propranolol-3-NB590]
NanoBRET Fold Response (PTGIR; 0.1μM): 1.05
NanoBRET Fold Response (PTGIR; 1μM): 0.97
NanoBRET Fold Response (XCR1; 0.1μM): 1.02
NanoBRET Fold Response (XCR1; 1μM): 0.97
NanoBRET Fold Response (P2RY2; 0.1μM): 1.07
NanoBRET Fold Response (P2RY2; 1μM): 1.03
NanoBRET Fold Response (PTGER4; 0.1μM): 1.04
NanoBRET Fold Response (PTGER4; 1μM): 1.06
NanoBRET Fold Response (GCGR; 0.1μM): 1.03
NanoBRET Fold Response (GCGR; 1μM): 0.96
